From US20250177412A1, “SMALL-MOLECULE INHIBITORS TARGETING THE BOB1/OCT1 INTERFACE” (NANTES UNIVERSITE, priority 2022, published 2025) come the findings set out here.

The target of data set [1] is OCT1 (endogenous) + BOB1 (transfected) (Homo sapiens) (UniProt P14859+Q16633). Kind of data set: cell_activity. To be noted: BOB1 stimulation over endogenous OCT1 alone, HEK293 luciferase; attenuated by compounds 004, 005, 006 at 10 uM.
The test system of data set [2] is BOB1/OCT1-mediated transcription. Put plainly: Luciferase reporter assay (transient transfection, 6xPORE-luc). It is filed as cell-based, human. To be noted: 10 μM in the culture medium. On the procedure:
FIGS. 1A-C are a combination of graphs showing that compound 005 inhibits BOB1/OCT1-mediated transcription in vitro. HEC293Ea1 cells, known to express endogenous OCT1, were co-transfected with […] reporter, pEV-OBF1 (BOB1) effector, and pCMV-β-gal calibrator plasmids. Luciferase and β-galactosidase activities were measured 48 hours after transfection. The 100% luciferase activity was set as activity in presence of vehicle (10 μM DMSO). […] All experiments are performed at least in triplicates. Bars indicate the mean±SEM. * P<0.05, ** P<0.01, *** P<0.001, **** P<0.0001.
The HEK293E1a cells were seeded at density 1.2×10^4 per well on 48-well plate in DMEM medium containing 10% fetal calf serum. After 24 hours cells were transfected with plasmid mix (300 ng/well) containing specified amounts of the p6×PORE-luc reporter, pEV-OBF1 and pCG-Oct1 effector, pBluescript II KS+ carrier, and pCMV-βgal (for standardization) as previously described. The transfections were carried out in three biological replicates, using Polyethylenimine (PEI 25K, Polysciences Inc.) at the ratio 2:1 to DNA. After 48 hours, cells were washed with PBS, lysed, and measured for luciferase activity, using the Bright-Glo luciferase assay system (Promega), and for β-galactosidase activity in a standard assay.
BOB1 has been described as a coactivator acting in cooperation with the POU-domain proteins OCT1 and OCT2 bound to distinct DNA-motifs either in monomeric or dimeric configurations. […] As an initial functional assay, we examined the ability of the compounds according to the present invention to affect BOB1-OCT1-PORE-mediated transcriptional activation in transient transfection luciferase assay. To this end, we made use of previously generated 6×PORE-luc and reporter plasmid, in which hexamers of the PORE were cloned upstream of the thymidine kinase (tk) minimal promoter and luciferase gene. […] Furthermore, the addition of a plasmid expressing exogenous OCT1 exerted an inhibitory effect on both basal and BOB1-mediated transcription (data not shown). This observation is likely due to the fact that HEK293 cells, like all other mammalian cell types, express OCT1, and further addition of exogenous OCT1 in these cells shifts the BOB1/OCT1 equilibrium out of optimal range, resulting in squelching effect, and in our experimental setup, in about 3-fold stimulation, as compared to that by endogenous OCT1 alone (FIG. 1A). […] Compound 005 was selected for further detailed investigation.
A general note: In a reporter assay the amount or activity of a reporter protein is the signal.

Sequence of OCT1 (endogenous) + BOB1 (transfected) (Homo sapiens) (P14859 other isoform, or with tags, fused parts or gaps, chain 1 of 2): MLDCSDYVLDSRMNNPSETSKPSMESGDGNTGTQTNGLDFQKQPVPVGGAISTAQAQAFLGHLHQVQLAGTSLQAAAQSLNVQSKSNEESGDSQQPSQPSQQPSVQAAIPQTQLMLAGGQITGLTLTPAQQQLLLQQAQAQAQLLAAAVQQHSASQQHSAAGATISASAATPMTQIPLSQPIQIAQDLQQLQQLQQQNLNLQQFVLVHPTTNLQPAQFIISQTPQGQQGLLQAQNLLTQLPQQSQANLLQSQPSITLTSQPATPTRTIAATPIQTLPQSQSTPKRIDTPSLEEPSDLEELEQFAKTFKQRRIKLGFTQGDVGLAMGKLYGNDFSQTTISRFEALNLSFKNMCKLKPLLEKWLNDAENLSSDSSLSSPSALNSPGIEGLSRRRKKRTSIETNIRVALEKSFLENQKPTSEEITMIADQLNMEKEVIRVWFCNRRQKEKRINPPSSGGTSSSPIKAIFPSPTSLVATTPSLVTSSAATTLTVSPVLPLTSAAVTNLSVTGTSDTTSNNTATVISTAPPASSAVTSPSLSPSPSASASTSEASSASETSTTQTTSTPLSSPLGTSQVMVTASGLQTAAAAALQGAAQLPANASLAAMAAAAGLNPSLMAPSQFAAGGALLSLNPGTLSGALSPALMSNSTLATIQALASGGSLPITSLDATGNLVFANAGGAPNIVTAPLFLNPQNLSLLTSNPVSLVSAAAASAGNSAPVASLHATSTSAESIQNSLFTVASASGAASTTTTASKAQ
Sequence of OCT1 (endogenous) + BOB1 (transfected) (Homo sapiens) (Q16633 whole entry, chain 2 of 2): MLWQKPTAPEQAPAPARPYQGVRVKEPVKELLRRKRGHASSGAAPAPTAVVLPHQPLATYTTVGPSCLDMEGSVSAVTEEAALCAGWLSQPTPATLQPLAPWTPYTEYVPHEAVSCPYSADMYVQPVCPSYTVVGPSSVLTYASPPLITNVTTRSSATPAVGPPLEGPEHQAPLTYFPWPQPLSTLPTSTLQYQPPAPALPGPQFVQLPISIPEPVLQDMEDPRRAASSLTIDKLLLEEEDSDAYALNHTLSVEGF

With 6xPORE-tk-luc reporter, in data set [1], the activity was found to be 3 fold.
Take `O=C(Nc1ccc(Br)c(C(F)(F)F)c1)C1CCCCN1c1nc(NCc2cccc(F)c2)nc(N(CCO)CCO)n1` (stereo not drawn) [compound 004, 1-(4-(bis(2-hydroxyethyl)amino)-6-((3-fluorobenzyl)amino)-1,3,5-triazin-2-yl)-N-(4-bromo-3-(trifluoromethyl)phenyl)piperidine-2-carboxamide]: in data set [2], the “BOB1/OCT1-driven transcription (relative luciferase activity)” value is given as “significantly attenuated”.
The same measure, in the same setting: the same measure for `O=C(O)CCNc1nc(NCCCc2ccc(F)cc2)nc(N2CCCC(C(=O)N3CCC(Cc4ccccc4)CC3)C2)n1` (stereo not drawn) [compound 006, 3-((4-(3-(4-benzylpiperidine-1-carbonyl)piperidin-1-yl)-6-((3-(4-fluorophenyl)propyl)amino)-1,3,5-triazin-2-yl)amino)propanoic acid]: “significantly attenuated”.
